Measurements as given in patent publication US10870647B2, “Imidazopyridine derivative, method for preparing same, and pharmaceutical composition containing same as active ingredient for preventing or treating cancer” (DAEGU-GYEONGBUK MEDICAL INNOVATION FOUNDATION, priority 2016, dated 2020).

Key:
Assay type in all cases: cell-based
Huh7 = assay: Cancer cell proliferation inhibition, MTS assay, 72 hours; settings: Homo sapiens, Huh-7
Protocol: (§1) MTS assay was performed to evaluate the cancer cell proliferation inhibition (cancer cell apoptosis) effect of the compounds of examples of the present invention. Particularly, the assay was performed using the cancer cell lines GIST-T1, GIST-T1/816, GIST-430, GIST-430/654, GIST-R1, GIST-R3, M-NFS-60, RetParental (Ba/F3), Retwt (Ba/F3), RetV804M (Ba/F3), RET (LC2/ad-CDC6), FYN (MCP-1), FYN (FN), MDA-MB-231, Huh7, K562, T315I(Ba/F3), SK-MEL-28 and A375. Cell culture was performed using a medium suitable for each cell line.
(§2) Other cell lines were seeded in a 96-well plate containing the corresponding medium appropriate for each cell line at the density of 3,000 cells/well, followed by culture in a 5% CO2 and 37° C. incubator for 24 hours. The compounds of examples of the present invention were added to each well at the concentration of from the highest volume of 50 μM to every step of serial dilution. The solvent control, dimethylsulfoxide (DMSO), was treated at the same concentration of 0.05% (v/v) as the volume used for the treatment of the compounds above. Each cell line was cultured for 72 hours. To investigate the cell viability, the MTS and PMS (phenazine methosulfate) mixture provided in CellTiter 96® AQuous Non-Radioactive Cell Proliferation Assay Kit (Promega) was added to each cell culture medium, followed by additional culture at 37° C. for 2 hours. Then, OD450 was measured. Based on OD of the solvent control cells not treated with any compounds of the present invention, the cell proliferation inhibition rate was calculated according to the treatment concentration of each compound. At this time, the concentration of each compound that was able to inhibit cancer cell proliferation up to 50% was determined as IC50 (uM). IC50 of each compound was determined with three data sets and calculated by using Prism softwater (version 6.01, GraphPad).

SK-MEL-28 = assay: as above; settings: Homo sapiens
Protocol: as §1, §2

MDA-MB-231 = assay: Real time cell proliferation, IncuCyte ZOOM, 72 hours; settings: Homo sapiens, MDA-MB-231, 72 h
K562 = assay: Cancer cell proliferation inhibition, CCK-8, 72 hours; settings: Homo sapiens, K562, 72 h
Protocol: as §1
(§3) In the meantime, MDA-MB-231 and A375 cells were seeded in a 96well plate at the density of 2×10^3/100 μl/well, which stood for a day for attachment. The culture fluid was eliminated. After removing the culture medium, the medium was replaced with the culture medium containing the compounds of the present invention at 3-times serially diluted 9 concentrations (0.0015-10 μM) and the DMSO control, followed by incubation in a 37° C. CO2 incubator for 72 hours. On the other hand, K-562 and Ba/F3-T315I cells were seeded in a 96-well plate at the density of 1×10^4/90 μl/well. The plate containing K-562 cells was added with the culture medium containing the compounds of the present invention at 3-times serially diluted 9 concentrations (0.015-100 μM) and the DMSO control (10 μl/well). The plate containing Ba/F3-T315I cells was added with the culture medium containing the compounds of the present invention at 5-times serially diluted 9 concentrations (0.000256-100 μM) and the DMSO control (10 μl/well). The final concentration was made 0-10 μM and then the cells were cultured in a 37° C. CO2 incubator for 72 hours.
(§4) A375, K-562 and Ba/F3-T315I cells were added with CCK-8 solution at the concentration of 10 μl/well, followed by orbital shaking for 30 seconds. Then, the cells were cultured in a 37° C. CO2 incubator for 2 hours. OD450 was measured by using a microplate reader. The OD value of the well treated with the culture medium and CCK-8 solution alone was subtracted from the OD value measured above, followed by calculation of IC50 using GraphPad Prism 6 software.

A375 = assay: as above; settings: Homo sapiens, A-375, 72 h
Protocol: as §1, §3, §4

T315I (Ba/F3) = molecular target: T1, T315I (Ba/F3) (Homo sapiens, UniProt P00519, T315I, cells depend on it); assay: as above; settings: read-out: T315I (Ba/F3) IC50
T1 construct: fused on or other part: P11274 (Breakpoint cluster region protein)
Protocol: as §1, §3, §4

M-NFS-60 = assay: as above
Protocol: as §1
M-NFS-60 cell line was cultured in the complete growth medium prepared by adding 10% FBS, 0.05 mM 2-mercaptoethanol and 62 ng of human M-CSF to RPMI. When the confluence reached 80% in T-75 flask, the cells were collected in a 50 ml tube for seeding, followed by centrifugation at 800 rpm for 5 minutes. The cells were suspended in 10 mL of growth medium. The cell number was counted by using a hematocytometer to determine the necessary cell number and the medium volume for seeding. The cells were seeded in a 96-well plate at the density of 20000 cells/well (200 μL/well), followed by stabilization in a 37° C. CO2 incubator, while the compounds of the present invention were prepared. The compounds of the present invention were serially diluted with DMSO at the ratio of 1/3 with setting the maximum concentration at 1968 nM, which were loaded in a new V-bottom 96-well plate, resulting in the preparation of total 11 concentrations including the DMSO control. The cells that had been placed in the incubator were taken out, to which the compounds of the present invention were added (2 μl/well). The plate treated with the compounds was cultured in a 37° C. CO2 incubator for 72 hours. 72 hours later, the plate treated with the compounds was taken out, to which CCK-8 solution was treated (20 μl/well). After well mixing, the plate was further cultured in a 37° C. CO2 incubator for 2 hours. Then, OD450 was measured by using a microplate reader. To obtain accurate results, the wells displaying bubbles were eliminated from the measurement.

RET (LC2/ad-CDC6) = assay: Cancer cell proliferation inhibition, MTS assay, 72 hours; settings: 72 h
Protocol: as §1, §2

SMILES | IC50 (Huh7) [nM] | IC50 (SK-MEL-28) [nM] | IC50 (MDA-MB-231) [nM] | IC50 (K562) [nM] | IC50 (A375) [nM] | GI50 (T315I (Ba/F3)) [nM] | IC50 (M-NFS-60) [nM] | IC50 (RET (LC2/ad-CDC6)) [nM]
Cc1ccc(C(=O)Nc2ccccc2F)cc1C#Cc1cnc2c(Nc3cnn(C)c3)cccn12 [Example 2, N-(2-fluorophenyl)-4-methyl-3-((8-((1-methyl-1H-pyrazol-4-yl)amino)imidazo[1,2-a]pyridin-3-yl)ethynyl)benzamide] | > 50000 | > 10000 | > 10000 | 12 | > 10000 | > 10000 |  | 
Cc1ccc(C(=O)Nc2ccc(CN3CCN(C)CC3)c(C(F)(F)F)c2)cc1C#Cc1cnc2c(Nc3ccc(C(F)(F)F)cc3)cccn12 [Example 19, 4-methyl-N-(4-((4-methylpiperazin-1-yl)methyl)-3-(trifluoromethyl)phenyl)-3-((8-((4-(trifluoromethyl)phenyl)amino)imidazo[1,2-a]pyridin-3-yl)ethynyl)benzamide] | 15200 | 3720 | 3190 | 131 | 4080 | 785 | 240 | < 10000
CCN1CCN(Cc2ccc(NC(=O)c3ccc(C)c(C#Cc4cnc5c(Nc6ccc(C)cn6)cccn45)c3)cc2C(F)(F)F)CC1 [Example 21, N-(4-((4-ethylpiperazin-1-yl)methyl)-3-(trifluoromethyl)phenyl)-4-methyl-3-((8-((5-methylpyridin-2-yl)amino)imidazo[1,2-a]pyridin-3-yl)ethynyl)benzamide] | 1850 | 1480 | 1650 | 15 | 1850 | 149 |  | < 100
Cc1ccc(Nc2cccn3c(C#Cc4cc(C(=O)Nc5ccc(CN6CCN(C)CC6)c(C(F)(F)F)c5)ccc4C)cnc23)cc1 [Example 24, 4-methyl-N-(4-((4-methylpiperazin-1-yl)methyl)-3-(trifluoromethyl)phenyl)-3-((8-(p-toylamino)imidazo[1,2-a]pyridin-3-yl)ethynyl)benzamide] | 11300 | 2630 | 3600 | 45 | 3520 | 668 |  | < 1000
CCN1CCN(Cc2ccc(NC(=O)c3ccc(C)c(C#Cc4cnc5c(Nc6ccc(C)cc6)cccn45)c3)cc2C(F)(F)F)CC1 [Example 25, N-(4-((4-ethylpiperazin-1-yl)methyl)-3-(trifluoromethyl)phenyl)-4-methyl-3-((8-(p-toylamino)imidazo[1,2-a]pyridin-3-yl)ethynyl)benzamide] | 17300 | 2090 | 3040 | 52 | 3710 | 619 |  | < 1000
